Consider 16 molecules from patent US5214054A, “Azacyclic carboxylic acid derivatives and their preparation and use” (Novo Nordisk A/S, priority 1988, dated 1993).

Molecules are shown by their SMILES. Structures can show the parent of a compound that is named as a salt.

One data set has as its system [^3 H]-GABA uptake. The data set is described as follows: in vitro inhibition of [^3 H]-GABA uptake. The settings on record: Male Wistar rat cortical tissue, 60 min, 30° C., pH 7.5, ligand 0.2 nM. In kind it is biochemical. How it is done:
The in vitro inhibition of [^3 H]-GABA uptake was assessed essentially by the method of Fjalland (Acta Pharmacol. Toxicol. 42 (1978) 73-76). Male Wistar rat cortical tissue was gently homogenized by hand using a glass teflon homogenizer in 10 volumes of 0.32M sucrose. Incubation was performed in a 40 mM tris HCl buffer (pH 7.5 at 30° C.) containing […], […], 4 mM MgSO4, 2.3 mM CaCl2 and 10 mM glucose, for 60 min. at 30° C. Ligand concentration was 0.2 nM.

Another data set concerns GABA uptake. As to conditions: background art; cited from earlier work.
For data set [1] the following is noted: background art; cited from earlier work.

By IC50 is commonly meant the concentration needed to halve the response being measured. The molecule `O=C(O)[C@@H]1CCCN(CCON=C(c2ccccc2)c2ccccc2)C1` [Example 1, (R)-Diphenylmethanone O-[2-(3-carboxypiperidin-1-yl)ethyl]oxime] returned an IC50 in data set [^3 H]-GABA uptake of 82 nM. On the same count and under the same terms, the value for `Cc1ccccc1C(=NOCCN1CCC[C@@H](C(=O)O)C1)c1sccc1C` [Example 2, (R)-(2-Methylphenyl)-(3-methyl-2-thienyl)methanone O-[2-(3-carboxypiperidin-1-yl)ethyl]oxime hydrochloride] was 44 nM. Still for that read-out and setting: under `Cc1ccsc1C(=NOCCN1CCC[C@@H](C(=O)O)C1)c1sccc1C` [Example 3, (R)-Bis(3-methyl-2-thienyl)methanone O-[2-(3-carboxypiperidin-1-yl)ethyl]oxime hydrochloride] stands 30 nM; under `CCc1ccccc1C(=NOCCN1CCC[C@@H](C(=O)O)C1)c1sccc1C` [Example 4, (R)-(2-Ethylphenyl)-(3-methyl-2-thienyl)methanone O-[2-(3-carboxypiperidin-1-yl)ethyl]oxime hydrochloride], 52 nM. `Cc1ccsc1C(=NOCCN1CCC[C@@H](C(=O)O)C1)c1cccs1` [Example 5, (R)-(3-Methyl-2-thienyl)-(2-thienyl)methanone O-[2-(3-carboxypiperidin-1-yl)ethyl]oxime] returned an IC50 in data set [^3 H]-GABA uptake of 64 nM. Regarding `O=C(O)C1CCCN(CCON=C(c2ccccc2)c2ccccc2)C1` (centres unmarked) [Example 25, Diphenylmethanone O-[2-(3-carboxypiperidin-1-yl)ethyl]oxime hydrochloride], in data set [^3 H]-GABA uptake, half-maximal inhibition (IC50) was put at 138 nM. Still for that read-out and setting: the value for `Cc1ccccc1C(=NOCCN1CCCC(C(=O)O)C1)c1sccc1C` (centres unmarked) [Example 26, (2-Methylphenyl)-(3-methyl-2-thienyl)methanone O-[2-(3-carboxypiperidin-1-yl)ethyl]oxime hydrochloride] was 58 nM; that for `O=C(O)C1=CCCN(CCON=C(c2ccccc2)c2ccccc2)C1` [Example 45, Diphenylmethanone O-[2-(3-carboxy-1,2,5,6-tetrahydropyridin-1-yl)ethyl]oxime] was 48 nM. Turning to `Cc1ccsc1C(=NOCCN1CCC=C(C(=O)O)C1)c1sccc1C` [Example 46, Bis(3-methyl-2-thienyl)methanone O-[2-(3-carboxy-1,2,5,6-tetrahydropyridin-1-yl)ethyl]oxime hydrochloride], the IC50 in data set [^3 H]-GABA uptake turned out to be 59 nM. The same measure, in the same setting: the value for `Cc1ccsc1C(=NOCCN1CCC[C@H](C(=O)O)C1)c1sccc1C` [Example 47, (S)-Bis(3-methyl-2-thienyl)methanone O-[2-(3-carboxypiperidin-1-yl)ethyl]oxime hydrochloride] was 51 nM. `O=C(O)[C@@H]1CCCN(CCON=CC(c2ccccc2)c2ccccc2)C1` [Example 83, E/Z-(R)-2,2-Diphenylacetaldehyde O-[2-(3-carboxy-piperidin-1-yl)ethyl]oxime hydrochloride]: the IC50 in data set [^3 H]-GABA uptake was 217 nM. On to `O=C(O)C1CCCN(CCC=C(c2ccccc2)c2ccccc2)C1` (centres unmarked) [SK&F 89976A, N-(4,4-diphenyl-3-buten-1-yl)nipecotic acid], for which the “inhibition of GABA re-uptake / uptake (in words)” value in the data set on GABA uptake is on record as “oral inhibitors of GABA uptake”.

In the case of `O=C(O)C1=CCCN(CCC=C(c2ccccc2)c2ccccc2)C1` [SK&F 100330A, N-(4,4-diphenyl-3-buten-l-yl)guvacine], the “inhibition of GABA re-uptake / uptake (in words)” value with GABA uptake is “oral inhibitors of GABA uptake”. On to `O=C(O)CC1CCN(CCC=C(c2ccccc2)c2ccccc2)C1` (stereo not drawn) [SK&F 100561, N-(4,4-diphenyl-3-buten-1-yl)homo-β-proline], for which the “inhibition of GABA re-uptake / uptake (in words)” value in the data set with GABA uptake is recorded as “oral inhibitors of GABA uptake”. In the case of `O=C(O)C1CCCN(CCC=C(c2ccccc2)c2cccs2)C1` (centres unmarked) [SK&F 100604J, N-(4-phenyl-4-(2-thienyl)-3-buten-1-yl)nipecotic acid], the “inhibition of GABA re-uptake / uptake (in words)” value with GABA uptake is “oral inhibitors of GABA uptake”. Take `O=C(O)C1CCCNC1` (centres unmarked) [piperidine-3-carboxylic acid]: the “ability to cross the blood-brain barrier (in words)” value in data set [1] is “unable to cross the blood-brain b arrier”. For the same molecule, in the data set on GABA uptake, the “inhibition of GABA re-uptake / uptake (in words)” value is given as “potent inhibitor of GABA re-uptake”.
